Laboratory results reported in patent publication US20240228446A1, “PREPARATION METHOD FOR BICYCLIC COMPOUND AND APPLICATION AS ANTIFUNGAL AGENT” (priority 2021, published 2024).
Converted amounts (≈) assume the structure as drawn. Read-outs that look alike come from different tables or passages of the source.

Assays:
[1] = system: Candida albicans ATCC MYA-2876; experiment: Minimal inhibitory concentration (MIC) test on fungal growth (CLSI M27, yeasts); type: cell-based; settings: for MIC: Candida albicans, read-out: MIC Candida albicans ATCC MYA-2876
Summary of the method: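 Broth microdilution followed CLSI M27 in RPMI1640 buffered with 0.165 M MOPS, pH 7.0, with a final inoculum of 500–2500 CFU/mL. Eleven 2-fold compound concentrations were tested, and plates were incubated 24 h at 35 °C. MIC was the lowest concentration giving 50% growth inhibition, read visually with optional OD530 assistance.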

[2] = system: Aspergillus fumigatus ATCC MYA-4609; experiment: Minimal inhibitory concentration (MIC) test on fungal growth (CLSI M38, Aspergillus); type: cell-based; settings: for MIC: Aspergillus fumigatus, read-out: MIC Aspergillus fumigatus ATCC MYA-4609
Protocol: • RPMI1640 medium: Brand: Gibco, article number: 31800-014 • Sabouraud dextrose agar (SDA): Brand: Hope Bio, article number: HB0253-81 • Voriconazole: Brand: Adamas, article number: 22105A • Amphotericin B: Brand: AbCam, article number: ab141199
MIC test was conducted in accordance with the guidelines and requirements of CLSI M27 (for yeasts) and M38 (for Aspergillus).
Strain preparation: The strains were inoculated 1 day in advance by streaking on SDA plates with glycerol strains stored at −80° C. The strains were cultured at 35° C. and 40 to 60% humidity for 18 to 24 hours. Streak inoculation of Aspergillus fumigatus and Cryptococcus neoformans was required to be done 3 days and 2 days in advance, respectively.
Preparation of culture medium and compounds: The liquid culture medium RPMI was prepared with pure water, and 0.165 mol/L MOPS was added to adjust the pH to 7.0. The mixture was filtered with a 0.22 μm-membrane filter, sterilized, and stored at 4° C. (no more than 3 months). 0.85% physiological saline was sterilized at 121° C. for 30 min and then stored at room temperature (no more than 1 week). The compounds were dissolved in DMSO to 12.8 mg/mL and stored at −20° C.
For Aspergillus, 5 mL of physiological saline was added to cover the mycelium, and the spores were gently scraped off with a spreader. The spore suspension was then transferred to a sterile test tube. An appropriate amount of spore suspension was taken and counted under a microscope using a hemocytometer. Spore concentration was adjusted to approximately 0.4 to 5×10^4 spores/mL using RPMI1640 medium.
The compound was diluted to the highest 800 μg/mL (or 400 μg/mL) with DMSO, and a 10-step 2-fold gradient dilution was performed, resulting in 11 concentrations. 2 μL of the gradient-diluted compound was transferred to the corresponding wells of a 96-well plate, and then 198 μL of the inoculum was transferred to the test plate. The plate was incubated at 35° C. for 24 hours (Aspergillus fumigatus and Cryptococcus neoformans were incubated for 48 and 72 hours, respectively).
After the incubation, the growth of the fungi was visually observed. The lowest concentration of the compound that inhibited the growth of yeast by 50% (inhibited Aspergillus by 100%) was defined as the minimum inhibitory concentration (MIC, μg/mL). A magnifying glass or reading at OD530 nm could be used to assist in determining the MIC. Photos were taken of the test plates for record keeping.

[3] = lowest concentration inhibiting growth of yeast by 50%, 35° C., 24 hours, RPMI1640
[4] = lowest concentration inhibiting Aspergillus by 100%, 35° C., 48 hours, RPMI1640

Structure (SMILES) | MIC [1, 3] [mg/L] | MIC [2, 4] [mg/L] | further results
Oc1ccc(C23CC(C(F)(F)[C@](O)(Cn4cncn4)c4ccc(F)cc4F)(C2)C3)cc1 [Compound 21A] | ≤ 0.0039 | 1 (≈ 2.31 µM) | –
Oc1ccc(C23CC(C(F)(F)C(O)(Cn4cncn4)c4ccc(F)cc4F)(C2)C3)cc1 (stereo not drawn) [Compound 21] | ≤ 0.0039 | 2 (≈ 4.61 µM) | –
O[C@@](Cn1cnnn1)(c1ccc(F)cc1F)C(F)(F)C12CC(c3ccc(OCC(F)F)cc3)(C1)C2 [Compound 22A] | 0.0078 (≈ 0.0156 µM) | 2 (≈ 4.01 µM) | –
OC(Cn1cnnn1)(c1ccc(F)cc1F)C(F)(F)C12CC(c3ccc(OCC(F)F)cc3)(C1)C2 (stereo not drawn) [Compound 22] | 0.0078 (≈ 0.0156 µM) | 4 (≈ 8.03 µM) | –
OC(Cn1cncn1)(c1ccc(F)cc1F)C(F)(F)C12CC(c3ccc(OCC(F)F)cc3)(C1)C2 (stereo not drawn) [Compound 23] | ≤ 0.0039 | 1 (≈ 2.01 µM) | –
OC(Cn1cncn1)(c1ccc(F)cc1F)C(F)(F)C12CC(c3ccc(OC(F)(F)F)cc3)(C1)C2 (stereo not drawn) [Compound 25] | 0.0078 (≈ 0.0156 µM) | 2 (≈ 3.99 µM) | –
N#Cc1ccc(C23CC(C(F)(F)[C@](O)(Cn4cncn4)c4ccc(F)cc4F)(C2)C3)cc1 [Compound 27A] | ≤ 0.0039 | 0.5 (≈ 1.13 µM) | –
N#Cc1ccc(C23CC(C(F)(F)C(O)(Cn4cncn4)c4ccc(F)cc4F)(C2)C3)cc1 (stereo not drawn) [Compound 27] | ≤ 0.0039 | 1 (≈ 2.26 µM) | –
N#Cc1ccc(C23CC(C(F)(F)[C@](O)(Cn4cncn4)c4cc(F)ccc4F)(C2)C3)cc1 [Compound 29A] | ≤ 0.0039 | 1 (≈ 2.26 µM) | –
N#Cc1ccc(C23CC(C(F)(F)C(O)(Cn4cncn4)c4cc(F)ccc4F)(C2)C3)cc1 (stereo not drawn) [Compound 29] | ≤ 0.0039 | 2 (≈ 4.52 µM) | –
CNC(=O)COc1ccc(C23CC(C(F)(F)[C@](O)(Cn4cncn4)c4ccc(F)cc4F)(C2)C3)cc1 [Compound 35A] | – | – | MIC Candida albicans ATCC MYA-2876 [1, 3]: ≤0.0039 mg/L; MIC Aspergillus fumigatus ATCC MYA-4609 [2, 4]: 1 mg/L (≈ 1.98 µM)
CNC(=O)COc1ccc(C23CC(C(F)(F)C(O)(Cn4cncn4)c4ccc(F)cc4F)(C2)C3)cc1 (stereo not drawn) [Compound 35] | ≤ 0.0039 | 2 (≈ 3.96 µM) | –
CC(C)(O)COc1ccc(C23CC(C(F)(F)[C@](O)(Cn4cnnn4)c4ccc(F)cc4F)(C2)C3)cc1 [Compound 36A] | 0.0078 (≈ 0.0154 µM) | 4 (≈ 7.9 µM) | –
CC(C)(O)COc1ccc(C23CC(C(F)(F)C(O)(Cn4cnnn4)c4ccc(F)cc4F)(C2)C3)cc1 (stereo not drawn) [Compound 36] | ≤ 0.0039 | 8 (≈ 15.8 µM) | –
CC(C)(O)COc1ccc(C23CC(C(F)(F)[C@](O)(Cn4cncn4)c4ccc(F)cc4F)(C2)C3)cc1 [Compound 37A] | ≤ 0.0039 | 1 (≈ 1.98 µM) | –
CC(C)(O)COc1ccc(C23CC(C(F)(F)C(O)(Cn4cncn4)c4ccc(F)cc4F)(C2)C3)cc1 (stereo not drawn) [Compound 37] | ≤ 0.0039 | 2 (≈ 3.96 µM) | –
O[C@@](Cn1cnnn1)(c1ccc(F)cc1F)C(F)(F)C12CC(c3ccc(O[C@@H]4CCOC4)cc3)(C1)C2 [Compound 40A] | – | – | MIC Candida albicans ATCC MYA-2876 [1, 3]: ≤0.0039 mg/L; MIC Aspergillus fumigatus ATCC MYA-4609 [2, 4]: 4 mg/L (≈ 7.93 µM)
OC(Cn1cnnn1)(c1ccc(F)cc1F)C(F)(F)C12CC(c3ccc(O[C@@H]4CCOC4)cc3)(C1)C2 (stereo partly drawn) [Compound 40] | ≤ 0.0039 | 16 (≈ 31.7 µM) | –

Structure (SMILES) | MIC [1, 3] [mg/L] | MIC [2, 4] [mg/L] | further results
O[C@@](Cn1cnnn1)(c1ccc(F)cc1F)C(F)(F)C12CC(c3ccc(O[C@H]4CCOC4)cc3)(C1)C2 [Compound 41A] | – | – | MIC Candida albicans ATCC MYA-2876 [1, 3]: ≤0.0039 mg/L; MIC Aspergillus fumigatus ATCC MYA-4609 [2, 4]: 8 mg/L (≈ 15.9 µM)
OC(Cn1cnnn1)(c1ccc(F)cc1F)C(F)(F)C12CC(c3ccc(O[C@H]4CCOC4)cc3)(C1)C2 (stereo partly drawn) [Compound 41] | 0.0078 (≈ 0.0155 µM) | 8 (≈ 15.9 µM) | –
O[C@@](Cn1cnnn1)(c1ccc(F)cc1F)C(F)(F)C12CC(c3ccc(OCC(F)(F)F)nc3)(C1)C2 [Compound 46A] | – | – | MIC Candida albicans ATCC MYA-2876 [1, 3]: 0.0078 mg/L (≈ 0.0151 µM); MIC Aspergillus fumigatus ATCC MYA-4609 [2, 4]: 2 mg/L (≈ 3.87 µM)
O[C@](Cn1cncn1)(CC12CC(c3ccc(OCC(F)(F)F)cc3)(C1)C2)c1ccc(F)cc1F [Compound 49A] | ≤ 0.0039 | 0.5 (≈ 1.04 µM) | –
OC(Cn1cncn1)(CC12CC(c3ccc(OCC(F)(F)F)cc3)(C1)C2)c1ccc(F)cc1F (stereo not drawn) [Compound 49] | 0.0078 (≈ 0.0163 µM) | 1 (≈ 2.09 µM) | –
OCC(F)(F)COc1ccc(C23CC(C(F)(F)[C@](O)(Cn4cnnn4)c4ccc(F)cc4F)(C2)C3)cc1 [Compound 50A] | 0.0078 (≈ 0.0148 µM) | 2 (≈ 3.78 µM) | –
OCC(F)(F)COc1ccc(C23CC(C(F)(F)C(O)(Cn4cnnn4)c4ccc(F)cc4F)(C2)C3)cc1 (stereo not drawn) [Compound 50] | 0.016 (≈ 0.0303 µM) | 4 (≈ 7.57 µM) | –
O[C@H](COc1ccc(C23CC(C(F)(F)[C@](O)(Cn4cnnn4)c4ccc(F)cc4F)(C2)C3)cc1)C(F)(F)F [Compound 51A] | ≤ 0.0039 | 1 (≈ 1.83 µM) | –
O[C@@H](COc1ccc(C23CC(C(F)(F)[C@](O)(Cn4cnnn4)c4ccc(F)cc4F)(C2)C3)cc1)C(F)(F)F [Compound 51B] | – | – | MIC Candida albicans ATCC MYA-2876 [1, 3]: 0.0078 mg/L (≈ 0.0143 µM); MIC Aspergillus fumigatus ATCC MYA-4609 [2, 4]: 4 mg/L (≈ 7.32 µM)
OC(COc1ccc(C23CC(C(F)(F)C(O)(Cn4cnnn4)c4ccc(F)cc4F)(C2)C3)cc1)C(F)(F)F (stereo not drawn) [Compound 51] | 0.0078 (≈ 0.0143 µM) | 4 (≈ 7.32 µM) | –
COCCCOc1ccc(C23CC(C(F)(F)C(O)(Cn4cnnn4)c4ccc(F)cc4F)(C2)C3)cc1 (stereo not drawn) [Compound 61] | 0.016 (≈ 0.0316 µM) | 8 (≈ 15.8 µM) | –
OC(Cn1cnnn1)(c1ccc(F)cc1F)C(F)(F)C12CC(c3ccc(OCCN4CCOCC4)cc3)(C1)C2 (stereo not drawn) [Compound 65] | – | – | MIC ([1]; 24 h): 0.0078 mg/L (≈ 0.0142 µM); MIC ([2]; 48 h): 32 mg/L (≈ 58.4 µM)
N#CCOc1ccc(C23CC(C(F)(F)C(O)(Cn4cnnn4)c4ccc(F)cc4F)(C2)C3)cc1 (stereo not drawn) [Compound 69] | – | – | MIC ([1]; 24 h): 0.016 mg/L (≈ 0.0338 µM); MIC ([2]; 48 h): 4 mg/L (≈ 8.45 µM)
OC(Cn1cnnn1)(c1ccc(F)cc1F)C(F)(F)C12CC(c3ccc(OC[C@H]4CCCO4)cc3)(C1)C2 (stereo partly drawn) [Compound 76] | – | – | MIC ([1]; 24 h): 0.016 mg/L (≈ 0.0309 µM); MIC ([2]; 48 h): 8 mg/L (≈ 15.4 µM)
OC(Cn1cncn1)(c1ccc(F)cc1F)C(F)(F)C12CC(c3ccc(OC(F)F)cc3)(C1)C2 (stereo not drawn) [Compound 81] | ≤ 0.0039 | 1 (≈ 2.07 µM) | –
O[C@H](COc1ccc(C23CC(C[C@](O)(Cn4cncn4)c4ccc(F)cc4F)(C2)C3)cc1)C(F)(F)F [Compound 90A] | ≤ 0.0039 | 0.5 (≈ 0.981 µM) | –
O[C@H](COc1ccc(C23CC(CC(O)(Cn4cncn4)c4ccc(F)cc4F)(C2)C3)cc1)C(F)(F)F (stereo partly drawn) [Compound 90] | ≤ 0.0039 | 0.5 (≈ 0.981 µM) | –
O[C@@H](COc1ccc(C23CC(C(F)(F)[C@](O)(Cn4cnnn4)c4ccc(F)cc4F)(C2)C3)cn1)C(F)(F)F [Compound 97A] | – | – | MIC Candida albicans ATCC MYA-2876 [1, 3]: ≤0.0039 mg/L; MIC Aspergillus fumigatus ATCC MYA-4609 [2, 4]: 4 mg/L (≈ 7.31 µM)
